Assay results from US20140286903A1, “Substituted Purine Nucleosides, Phosphoramidate and Phosphordiamidate Derivatives for Treatment if Viral Infections” (INHIBITEX, INC., priority 2011, published 2014).
pIC50: −log10 of the molar value.

What was measured:
[1] = tested on: HCV replicon (Genotype 1b); assay: Luciferase genotype 1b replicon potency assay; type: cell-based, hepatitis C virus; conditions: Hepatitis C virus, Huh-7, Huh7 luciferase-reporter genotype 1b subgenomic replicon cells; Renilla luciferase reporter activity; 50% decrease vs untreated cells
Description: (§1) Further to the above Examples, representative compounds, prepared according to the examples were tested for potency in an HCV replicon assay (Genotype 1b) for activity against the virus (EC50) and toxicity to the cells (CC50).
(§2) Huh7 Replicon Cell Lines and Cell Culture Conditions: A luciferase-reporter genotype 1b subgenomic replicon cell line, and a genotype 1a full-length replicon cell line were obtained from Apath, LLC, Brooklyn, N.Y.: All cell lines were passaged twice a week by splitting 4 or 6 fold. Cells were maintained in DMEM-high glucose medium (HyClone, Logan, Utah) supplemented with 9% FBS (HyClone), 2 mM glutamine (Invitrogen, Carlsbad, Calif.), 100 U/mL PenStrep (Invitrogen). Media also contained 0.25 mg/mL of the antibiotic G-418 to maintain stable expression of the replicon (Invitrogen). Incubation was performed at 37° C. in 5% CO2 atmosphere. Replicon cell lines were used until they accumulated 15-to-18 passages, after which cells were restarted from the frozen stock. Seeding cell counts were routinely determined using an automatic Cedex HiRes cell counter (Flownomics Analytical Instruments, Madison, Wis.) or manually using INCYTO C-Chip™ Disposable Hemacytometers (Fisher Scientific, Pittsburg, Pa.).
Luciferase Genotype 1b Replicon Potency Assay. Replicon cells were seeded into white 96-well plates (Nunc/VWR) at a density of 2×10^4 cells/well in medium without G-418. A Stacker Multidrop Liquid Dispenser (MTX Lab Systems, Vienna, Va.) was employed to ensure uniform and fast cell seeding into multiple plates. 18-24 h after cell plating, inhibitors were added and cells were incubated for additional 24, 48, or 72 h (as indicated). Compounds were tested in triplicates and quadruplicates at 3× or 4× serial dilutions over a range of 0.0001-to-10 μM concentrations. HCV replication was monitored by Renilla luciferase reporter activity assay using Renilla luciferase reporter (Promega, Madison, Wis.) and a Veritas Luminometer (Turner Biosystems, Sunnyvale, Calif.). 50% and 90% inhibitory concentration (IC50 and IC90) values were calculated as the concentration of compound that results correspondingly in 50% and 90% decreases in the reporter expression as compared to untreated cells. The values were determined by non-linear regression (four-parameter sigmoidal curve fitting) analysis.

[2] = Cytotoxicity assay (CellTiter-Glo); type: cell-based; conditions: human, 72 h incubation, concentration resulting in 50% luminescent signal
Description: as §1, §2
Cytotoxicity Assay. Cells were seeded into 96-well plates at a density of 2×10^4 cells per well. 24 h after cell plating, 11 serial 2× compound dilutions, starting with 100 µM, were applied to the testing plates (3 repeats per compound dilution). Each testing plate was run with a “no-compound” control. Incubation with compounds was continued at 37° C. in a CO2 incubator for 72 h. To determine cell viability, the CellTiter-Glo® assay (Promega, Madison, Wis.) was performed according to the manufacturer's protocol. The compound concentration resulting in 50% luminescent signal was reported as the CC50 concentration.

Row | Compound | pIC50 [1] | CC50 at 72 h [2] [µM]
1 | COc1nc(N)nc2c1ncn2[C@@H]1O[C@H](COP(=O)(N[C@@H](C)C(=O)OCC(C)(C)C)Oc2cccc3ccccc23)[C@@H](F)[C@@]1(C)O (stereo partly drawn) [Example 16, (2S)-Neopentyl 2-((((2R,3R,4S,5R)-5-(2-amino-6-methoxy-9H-purin-9-yl)-3-fluoro-4-hydroxy-4-methyltetrahydrofuran-2-yl)methoxy)(naphthalen-1-yloxy)phosphorylamino)propanoate] | 6.43 | 29
2 | COc1nc(N)nc2c1ncn2[C@@H]1O[C@H](COP(=O)(N[C@@H](C)C(=O)OCc2ccc(F)cc2F)Oc2cccc3ccccc23)[C@@H](F)[C@@]1(C)O (stereo partly drawn) [Example 13, (2S)-2,4-Difluorobenzyl 2-((((2R,3R,4S,5R)-5-(2-amino-6-methoxy-9H-purin-9-yl)-3-fluoro-4-hydroxy-4-methyltetrahydrofuran-2-yl)methoxy)(naphthalen-1-yloxy)phosphorylamino)propanoate] | 6.00 | 68
3 | CCOc1nc(N)nc2c1ncn2[C@@H]1O[C@H](COP(=O)(N[C@@H](C)C(=O)OCC(C)(C)C)Oc2cccc3ccccc23)[C@@H](F)[C@@]1(C)O (stereo partly drawn) [Example 20, (2S)-Neopentyl 2-((((2R,3R,4S,5R)-5-(2-amino-6-ethoxy-9H-purin-9-yl)-3-fluoro-4-hydroxy-4-methyltetrahydrofuran-2-yl)methoxy)(naphthalen-1-yloxy)phosphorylamino)propanoate] | 6.21 | 23
4 | COc1nc(N)nc2c1ncn2[C@@H]1O[C@H](COP(=O)(N[C@@H](C)C(=O)OCC(C)(C)C)Oc2cccc3ccccc23)[C@H](F)[C@@]1(C)O (stereo partly drawn) [Example 29, (2S)-Neopentyl 2-((((2R,3S,4S,5R)-5-(2-amino-6-methoxy-9H-purin-9-yl)-3-fluoro-4-hydroxy-4-methyltetrahydrofuran-2-yl)methoxy)(naphthalen-1-yloxy)phosphorylamino)propanoate] | 4.59 | 40
